Results as given in patent US20260199323A1, “LIGAND COMPOUNDS FOR E3 UBIQUITIN LIGASE, PROTEIN DEGRADERS DEVELOPED ON BASIS OF LIGAND COMPOUNDS, AND USES THEREOF” (GLUETACS THERAPEUTICS (SHANGHAI) CO., LTD., priority 2021, published 2026).
Each block holds one compound with its values, some of them ahead of it.

Experiments:
Assay type in all cases: cell-based, Human
[1] = test system: Mino; assay: CCK-8 tumor cell proliferation, Mino; conditions: Homo sapiens; Table 15, ALK inhibitor based; Mino; read-out: IC50 inhibiting proliferation of tumor cells, Mino
Protocol: (§1) The tumor cells used herein were cultured in a cell culture medium listed in table 4 at 37° C. in an incubator with 5% CO2. Prior to experimentation, all cells used were correctly identified by STR profiling, and tested negative for mycoplasma through routine screenings.
(§2) IC50 values of the compounds of the present disclosure (including the compounds in Tables 1 and 3, and compounds of examples) were measured using the Meilun Cell Counting Kit-8 kit from Dalian Meilun Biotech Co., Ltd. Assay details are as follows: tumor cells were seeded in a 96-well plate at a density listed in Table 5. After 24 h, 100 μL of the inoculated cells were treated with 0.5 μL of the compounds of the present disclosure (including the compounds in Tables 1 and 3, and compounds of examples) at 10 different successively decreasing concentrations (starting at the highest concentration of 10 μM; 5-fold serial dilutions). After the cells were treated with the compounds of the present disclosure for a period of time, the cell viability detection reagent was added to the culture medium for cell viability assessment according to the instructions provided with the CCK-8 kit. […] The growth inhibition of the compounds of the present disclosure on cells was plotted by Prism Graphpad software, and the IC50 values of the compounds of the present disclosure were calculated therefrom.

[2] = test system: SR; assay: CCK-8 tumor cell proliferation, SR; conditions: Homo sapiens; Table 15, ALK inhibitor based; SR; read-out: IC50 inhibiting proliferation of tumor cells, SR
In short: (§3)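 Viability determined colorimetrically with CCK-8 following compound treatment. Dosing began 24 h post-plating using ten 5-fold dilutions capped at 10 μM; growth-inhibition curves yielded IC50.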

[3] = test system: PC-9; assay: CCK-8 tumor cell proliferation, PC-9; conditions: Homo sapiens; Table 15, ALK inhibitor based; PC-9; read-out: IC50 inhibiting proliferation of tumor cells, PC-9
Protocol: The tumor cells used herein were cultured in a cell culture medium listed in table 4 at 37° C. in an incubator with 5% CO2.
as §2, with “After” for “IC50 values of the compounds of the present disclosure (including the compounds in Tables 1 and 3, and compounds of examples) were measured using the Meilun Cell Counting Kit-8 kit from Dalian Meilun Biotech Co., Ltd. Assay details are as follows: tumor cells were seeded in a 96-well plate at a density listed in Table 5. After”

[4] = test system: MV-4-11; assay: CCK-8 tumor cell proliferation, MV-4-11; conditions: Homo sapiens, MV4-11; Table 15, ALK inhibitor based; MV-4-11; read-out: IC50 inhibiting proliferation of tumor cells, MV-4-11
Protocol: as §1, §2

[5] = test system: MDA-MB-231; assay: CCK-8 tumor cell proliferation, MDA-MB-231; conditions: Homo sapiens; Table 15, ALK inhibitor based; MDA-MB-231; read-out: IC50 inhibiting proliferation of tumor cells, MDA-MB-231
In short: as §3

[6] = test system: CCRF-CEM; assay: CCK-8 tumor cell proliferation, CCRF-CEM; design: IC50 for inhibiting the proliferation of tumor cells, CCRF-CEM: scale not given here; conditions: Table 8, designed based on ER inhibitors; 96 h
In short: as §3

[7] = test system: CAL-62; assay: CCK-8 tumor cell proliferation, CAL-62; design: IC50 for inhibiting the proliferation of tumor cells, CAL-62: scale not given here; conditions: for IC50 for inhibiting the proliferation of tumor cells, CAL-62: Table 8, designed based on ER inhibitors, 72 h; for IC50: Homo sapiens, Table 18, FAK inhibitor based, CAL-62, read-out: IC50 inhibiting proliferation of tumor cells, CAL-62
In short: as §3

[8] = test system: Vcap; assay: CCK-8 tumor cell proliferation, Vcap; conditions: for IC50 for inhibiting the proliferation of tumor cells, Vcap: Table 8, designed based on ER inhibitors, 96 h; for IC50: Homo sapiens, VCaP, Table 18, FAK inhibitor based, Vcap, read-out: IC50 inhibiting proliferation of tumor cells, Vcap
Protocol: as §1, §2

[9] = test system: SW620; assay: CCK-8 tumor cell proliferation, SW620; conditions: for IC50: Homo sapiens, SW-620, Table 18, FAK inhibitor based, SW620, read-out: IC50 inhibiting proliferation of tumor cells, SW620
In short: as §3

IC50 [9]: < 50 nM
IC50 [7]: < 50 nM
IC50 [8]: 100 to 500 nM
Structure (SMILES): CNC(=O)c1ccccc1Nc1cc(Nc2cc(C)c(N3CCN(Cc4ccc5c(c4F)CN(C4CCC(=O)NC4=O)C5=O)CC3)cc2OC(C)C)ncc1C(F)(F)F (stereo not shown) [GT-03941, 2-((2-((4-(4-((2-(2,6-dioxopiperidin-3-yl)-4-fluoro-1-oxoisoindolin-5-yl)methyl)piperazin-1-yl)-2-isopropoxy-5-methylphenyl)amino)-5-(trifluoromethyl)pyridin-4-yl)amino)-N-methylbenzamide]

IC50 for inhibiting the proliferation of tumor cells, SW620 ([9]; Table 8, designed based on ER inhibitors, 96 h): A+
IC50 for inhibiting the proliferation of tumor cells, CCRF-CEM [6]: A+
IC50 for inhibiting the proliferation of tumor cells, CAL-62 [7]: A+
IC50 for inhibiting the proliferation of tumor cells, Vcap [8]: A+
Structure (SMILES): CCC(=C(c1ccc(O)cc1)c1ccc(N2CCN(Cc3ccc4c(c3F)CN(C3CCC(=O)NC3=O)C4=O)CC2)cc1)c1ccc(O)cc1 (stereo not shown) [GT-04144, 3-(5-((4-(4-(1,2-bis(4-hydroxyphenyl)but-1-en-1-yl)phenyl)piperazin-1-yl)methyl)-4-fluoro-1-oxoisoindolin-2-yl)piperidine-2,6-dione]

IC50 for inhibiting the proliferation of tumor cells, CCRF-CEM [6]: A+
IC50 for inhibiting the proliferation of tumor cells, CAL-62 [7]: A+
IC50 for inhibiting the proliferation of tumor cells, Vcap [8]: A+
Structure (SMILES): CCC(=C(c1ccc(O)cc1)c1ccc(N2CCN(Cc3cccc4c3CN(C3CCC(=O)NC3=O)C4=O)CC2)cc1)c1ccc(O)cc1 (stereo not shown) [GT-04147, 3-(4-((4-(4-(1,2-bis(4-hydroxyphenyl)but-1-en-1-yl)phenyl)piperazin-1-yl)methyl)-1-oxoisoindolin-2-yl)piperidine-2,6-dione]

IC50 for inhibiting the proliferation of tumor cells, CCRF-CEM [6]: A+
IC50 for inhibiting the proliferation of tumor cells, CAL-62 [7]: A+
IC50 for inhibiting the proliferation of tumor cells, Vcap [8]: A+
Structure (SMILES): CCC(=C(c1ccc(O)cc1)c1ccc(N2CCN(Cc3ccc4c(c3)C(=O)N(C3CCC(=O)NC3=O)C4=O)CC2)cc1)c1ccc(O)cc1 (stereo not shown) [GT-04148, 5-((4-(4-(1,2-bis(4-hydroxyphenyl)but-1-en-1-yl)phenyl)piperazin-1-yl)methyl)-2-(2,6-dioxopiperidin-3-yl)isoindoline-1,3-dione]

The next lines start with the compound.

Structure (SMILES): CCc1cc2c(cc1N1CCC(N3CCN(Cc4cc5c(cc4F)C(=O)N(C4CCC(=O)NC4=O)C5)CC3)CC1)C(C)(C)c1[nH]c3cc(C#N)ccc3c1C2=O (stereo not shown) [GT-03759, 8-(4-(4-((2-(2,6-dioxopiperidin-3-yl)-6-fluoro-1-oxoisoindolin-5-yl)methyl)piperazin-1-yl)piperidin-1-yl)-9-ethyl-6,6-dimethyl-11-oxo-6,11-dihydro-5H-benzo[b]carbazole-3-carbonitrile]
IC50 [1]: 500 to 1000 nM
IC50 [2]: < 50 nM
IC50 [3]: 100 to 500 nM
IC50 [4]: 100 to 500 nM

Structure (SMILES): CCc1cc2c(cc1N1CCC(N3CCN(Cc4cccc5c4CN(C4CCC(=O)NC4=O)C5=O)CC3)CC1)C(C)(C)c1[nH]c3cc(C#N)ccc3c1C2=O (stereo not shown) [GT-03764, 8-(4-(4-((2-(2,6-dioxopiperidin-3-yl)-1-oxoisoindolin-4-yl)methyl)piperazin-1-yl)piperidin-1-yl)-9-ethyl-6,6-dimethyl-11-oxo-6,11-dihydro-5H-benzo[b]carbazole-3-carbonitrile]
IC50 [5]: 50 to 100 nM
IC50 [1]: 50 to 100 nM
IC50 [2]: < 50 nM
IC50 [3]: 100 to 500 nM
IC50 [4]: 50 to 100 nM

Structure (SMILES): O=C1CCC(N2C(=O)c3ccc(CBr)cc3C2=O)C(=O)N1 (stereo not shown) [GT-03855]
IC50 for inhibiting the proliferation of tumor cells, CCRF-CEM [6]: A+
IC50 for inhibiting the proliferation of tumor cells, CAL-62 [7]: A+
IC50 for inhibiting the proliferation of tumor cells, Vcap [8]: A+

Structure (SMILES): CNC(=O)c1ccccc1Nc1cc(Nc2cc(C)c(N3CCN(Cc4ccc5c(c4)CN(C4CCC(=O)NC4=O)C5=O)CC3)cc2OC(C)C)ncc1C(F)(F)F (stereo not shown) [GT-03940, 2-((2-((4-(4-((2-(2,6-dioxopiperidin-3-yl)-1-oxoisoindolin-5-yl)methyl)piperazin-1-yl)-2-isopropoxy-5-methylphenyl)amino)-5-(trifluoromethyl)pyridin-4-yl)amino)-N-methylbenzamide]
IC50 [9]: 50 to 100 nM
IC50 [7]: < 50 nM
IC50 [8]: 500 to 1000 nM
